Results published in publication PMC11192081, “Evidence that the cold- and menthol-sensing functions of the human TRPM8 channel evolved separately” (Science Advances, 2024).

Columns and labels:
[1] = tested on: T1, AncMam TRPM8; assay: Fluoforte calcium flux assay, HEK-293T stable cells; assay type: cell-based; conditions: Homo sapiens
T1 construct: tetramer

[2] = tested on: T2, AncVert TRPM8; assay: as above; assay type: cell-based; conditions: Homo sapiens
T2 construct: tetramer

Q: Which results are given for `CC(C)[C@@H]1CC[C@@H](C)C[C@H]1O` [menthol]?
A: EC50 [1]: 10 ± 1 µM; EC50 [2]: 140 ± 40 µM
